Experimental data published in patent US20140323500A1, “NADPH OXIDASE 4 INHIBITORS AND USE THEREOF” (GENKYOTEX SA, priority 2011, published 2014).
Where two headings read alike, the source gives them in different places. Each block holds one compound with its values, some of them ahead of it.

What was measured:
[1] = test system: xanthine/xanthine oxidase; experiment: Antioxidant activity in an assay of Example 1 (ROS production by xanthine/xanthine oxidase, Amplex Red); assay type: biochemical; settings: as measured in an assay of Example 1
Experimental: Reactive Oxygen Species (ROS) production by membranes expressing either human Nox1, or human Nox2 or human Nox4 or human Nox5 or by xanthine/xanthine oxidase were measured using the Amplex Red (AR) method following a slightly modified version of the manufacturer's instruction manual (Invitrogen). Briefly, membranes or xanthine were incubated in PBS with Amplex Red, Horse Radish Peroxidase (HRP) and appropriated co-factors. ROS production was induced by addition of NADPH to NOX-expressing membrane or by addition of xanthine to xanthine oxidase. Non-specific signal was measured in the absence of membranes or in the absence of xanthine.
Antagonist activity of compounds was measured in the presence of increasing concentrations ranging from 1 nM to 100 μM. After an incubation of 20 min in a plate shaker and incubator (Titramax 1000, VWR) at 37° C. with weak agitation (300 rpm), ROS levels were measured for 10 min in a BMG Fluostar microplate reader with excitation and emission wavelengths of 544 nm and 590 nm respectively.

murine M-CSF-primed BMNC = experiment: RANKL-induced increase in cytosolic Ca2+ by Fura2 fluorescence; assay type: cell-based, mice; settings: 20 μmol/L co-applied with RANKL during stimulation (30 hours); wildtype cells; FIG. 4B
Description: A: comparison of cells from wildtype and Nox4−/− mice; B: Effect of a Nox4 inhibitor (Compound (1) or solvent on calcium concentrations in wildtype cells; n≧3; *p<0.05.
Epiphyseal ends of the femora and tibiae were cut off and the bone marrow was flushed out with DMEM containing 10% FCS. Bone marrow stromal cells were collected and plated at a density of 2×10^6 cells/cm^2 in α-MEM containing 10% FCS and 1% penicillin/streptomycin. Following attachment, medium was replaced by basal medium supplemented with 25 ng/ml M-CSF (R&D Systems) for 2 days. Thereafter, cells were cultured for additional 6 days in differentiation medium containing 25 ng/ml M-CSF and 50 ng/ml RANKL (R&D Systems). TRAP staining was performed using the leukocyte acid phosphatase kit (Sigma) following the manufactures instructions according to Mukherjee et al., 2008, supra.
The role of Nox4 for the RANKL-induced increase in cytosolic Ca^2+ was investigated by FURA2 fluorescence as described below. […]
Cells were grown on 96 well plates and differentiated with or without RANKL as described above. […] After another washing step intracellular free Fura-2 and Ca^2+-bound Fura-2 was measured at the wavelength 340 and 380 nm by the ELISA Reader EnVision (PerkinElmer) in 100 μl HEPES Tyrode. […] Eventually the intracellular Ca^2+ was calculated as described by Grynkiewicz et al., 1985, J. Biol. Chem., 260(6):3440-3450.

human Nox4 = target: T1, human Nox4 (Homo sapiens, UniProt Q9NPH5); experiment: ROS production by membranes expressing human Nox4, cell-free Amplex Red assay; assay type: biochemical; settings: for Ki: read-out: Ki hNox4
T1 construct: expressed in transfected cells; host or cells: T-REx-293 (hNOX4 T-REx-293), tetracycline-induced; membrane fraction
T1 sequence (Q9NPH5 1-578): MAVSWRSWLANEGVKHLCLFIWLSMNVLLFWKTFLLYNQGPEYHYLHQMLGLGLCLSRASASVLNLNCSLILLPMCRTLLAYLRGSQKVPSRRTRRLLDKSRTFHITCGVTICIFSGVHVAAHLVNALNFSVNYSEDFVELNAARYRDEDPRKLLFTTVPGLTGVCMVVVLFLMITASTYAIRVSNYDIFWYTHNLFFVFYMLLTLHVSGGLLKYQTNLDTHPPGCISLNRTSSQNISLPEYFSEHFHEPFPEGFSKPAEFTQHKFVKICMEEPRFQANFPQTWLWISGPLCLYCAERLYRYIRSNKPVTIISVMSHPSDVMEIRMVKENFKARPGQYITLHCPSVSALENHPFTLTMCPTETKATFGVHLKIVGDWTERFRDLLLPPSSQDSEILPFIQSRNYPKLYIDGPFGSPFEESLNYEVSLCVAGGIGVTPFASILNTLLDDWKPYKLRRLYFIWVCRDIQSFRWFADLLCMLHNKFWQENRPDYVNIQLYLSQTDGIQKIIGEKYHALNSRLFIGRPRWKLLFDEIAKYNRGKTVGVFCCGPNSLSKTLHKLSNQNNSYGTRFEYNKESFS
T1 sequence (P13498 2-195 partner limits assumed): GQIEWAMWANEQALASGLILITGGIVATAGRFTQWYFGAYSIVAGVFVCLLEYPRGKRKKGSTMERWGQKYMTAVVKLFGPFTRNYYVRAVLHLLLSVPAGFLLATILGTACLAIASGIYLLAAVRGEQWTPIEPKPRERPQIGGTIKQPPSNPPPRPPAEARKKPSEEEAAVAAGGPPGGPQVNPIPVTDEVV
Method in brief: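 Membranes from tetracycline-induced (1 μg/ml, 24 h) T-REx cells overexpressing human Nox4, incubated in PBS with Amplex Red, HRP and co-factors; NADPH starts ROS production. Compounds 1 nM-100 μM, 20 min at 37° C.; fluorescence (ex 544/em 590 nm) over 10 min; Ki via Cheng-Prusoff, ≥3 experiments in triplicate.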

human Nox2 = target: T2, human Nox2 (Homo sapiens, UniProt P04839); experiment: ROS production by membranes expressing human Nox2, cell-free Amplex Red assay; assay type: biochemical; settings: read-out: Ki hNox2
T2 construct: host or cells: T-REx-CHO (hNOX2 T-REx-CHO), tetracycline-induced; membrane fraction
T2 sequence (P04839 2-570 limits assumed): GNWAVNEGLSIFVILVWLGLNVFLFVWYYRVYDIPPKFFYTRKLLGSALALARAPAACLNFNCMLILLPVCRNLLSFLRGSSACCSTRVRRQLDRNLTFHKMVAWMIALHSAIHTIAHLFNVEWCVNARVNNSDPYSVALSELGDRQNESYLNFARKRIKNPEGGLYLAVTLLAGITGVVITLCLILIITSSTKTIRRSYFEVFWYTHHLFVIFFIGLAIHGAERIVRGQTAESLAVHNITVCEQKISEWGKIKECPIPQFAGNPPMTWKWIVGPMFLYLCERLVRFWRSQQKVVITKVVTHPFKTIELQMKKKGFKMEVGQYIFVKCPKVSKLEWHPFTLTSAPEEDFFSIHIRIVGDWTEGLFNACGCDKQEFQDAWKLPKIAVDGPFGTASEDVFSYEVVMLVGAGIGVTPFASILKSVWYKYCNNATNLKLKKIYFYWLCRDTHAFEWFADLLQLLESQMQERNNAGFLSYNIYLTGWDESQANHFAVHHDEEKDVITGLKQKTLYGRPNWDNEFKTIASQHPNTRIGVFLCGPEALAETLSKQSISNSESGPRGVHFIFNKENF
T2 sequence (P13498 2-195 partner limits assumed): T1 sequence (P13498 2-195 partner limits assumed)
Method in brief: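 Membranes from tetracycline-induced (1 μg/ml, 24 h) T-REx-CHO cells stably expressing hNox2 with p22 and cofactors, incubated in PBS with Amplex Red, HRP and cofactors; NADPH starts ROS production. Compounds 1 nM–100 μM, 20 min at 37 °C, then fluorescence (544/590 nm) read for 10 min; Ki by Cheng-Prusoff.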

[2] = test system: female mice subjected to ovariectomy; experiment: Ovariectomy-induced osteoporosis (bone loss) in mice; assay type: in vivo; settings: distal femur 6 weeks after ovariectomy, compound 1 at 20 and 60 mg/kg, pamidronat 10 mg/kg once a week, microCT
Experimental: BMD of the left femur was measured by peripheral quantitative computed tomography (QCT) using an XCT Research QCT machine (Stratec Medizintechnik, Pforzheim, Germany). One slice (0.2 mm thick) in the mid-diaphysis of the femur and 3 slices in the distal femoral metaphysis located 1.5, 2, and 2.5 mm proximal to the articular surface of the knee joint were measured. BMD values of the distal femoral metaphysic were calculated as the mean of 3 slices. A voxel size of 0.070 mm and a threshold of 710 mg/cm^3 were used for calculation of BMD as described in Hofbauer et al., 2009, Arthritis Rheum., 60(5):1427-1437.
The control group received daily gavages by the solvent.
To study the latter effect, female mice were subjected to ovariectomy to induce osteoporosis and the effect of pharmacological inhibition of Nox4 with a Nox4 inhibitor as well as acute genetic knockout of the protein was studied. For this, mice were subjected to ovariectomy 8 weeks after birth and treatment at 60 mg/kg with a Nox4 inhibitor of the invention was started 2 days after the operation and continued throughout the study (6 weeks).
3, Hamburg was used which completely blocks osteoclast activity. […] For this, bones were scanned with a skyscan 1176 and bone density was analysed with the integrated software using two phantoms with 0.25 g/cm^3 and 0.75 g/cm^3 as reference. A 2 mm portion of the femur from the tibia plateau was analysed for total and trabecular bone density by the software provided by the manufacturer of the machine. […] For this method, the femurs were loaded to failure by 3-point bending tests using a Zwick Z020/TN2A materials testing machine (Zwick, Ulm, Germany) with a 1 kN force detector, and a force resolution of 0.01N. The distance between the lower supports for the bending tests was 5 mm. Crosshead speed during testing was 0.2 mm/minute for all measurements. From the force-displacement data, ultimate force (Fmax; in N) was calculated.

[3] = cell-free membranes, Amplex Red, Cheng-Prusoff, average of at least three experiments in triplicate

xanthine/xanthine oxidase, sequence (P47989 whole entry): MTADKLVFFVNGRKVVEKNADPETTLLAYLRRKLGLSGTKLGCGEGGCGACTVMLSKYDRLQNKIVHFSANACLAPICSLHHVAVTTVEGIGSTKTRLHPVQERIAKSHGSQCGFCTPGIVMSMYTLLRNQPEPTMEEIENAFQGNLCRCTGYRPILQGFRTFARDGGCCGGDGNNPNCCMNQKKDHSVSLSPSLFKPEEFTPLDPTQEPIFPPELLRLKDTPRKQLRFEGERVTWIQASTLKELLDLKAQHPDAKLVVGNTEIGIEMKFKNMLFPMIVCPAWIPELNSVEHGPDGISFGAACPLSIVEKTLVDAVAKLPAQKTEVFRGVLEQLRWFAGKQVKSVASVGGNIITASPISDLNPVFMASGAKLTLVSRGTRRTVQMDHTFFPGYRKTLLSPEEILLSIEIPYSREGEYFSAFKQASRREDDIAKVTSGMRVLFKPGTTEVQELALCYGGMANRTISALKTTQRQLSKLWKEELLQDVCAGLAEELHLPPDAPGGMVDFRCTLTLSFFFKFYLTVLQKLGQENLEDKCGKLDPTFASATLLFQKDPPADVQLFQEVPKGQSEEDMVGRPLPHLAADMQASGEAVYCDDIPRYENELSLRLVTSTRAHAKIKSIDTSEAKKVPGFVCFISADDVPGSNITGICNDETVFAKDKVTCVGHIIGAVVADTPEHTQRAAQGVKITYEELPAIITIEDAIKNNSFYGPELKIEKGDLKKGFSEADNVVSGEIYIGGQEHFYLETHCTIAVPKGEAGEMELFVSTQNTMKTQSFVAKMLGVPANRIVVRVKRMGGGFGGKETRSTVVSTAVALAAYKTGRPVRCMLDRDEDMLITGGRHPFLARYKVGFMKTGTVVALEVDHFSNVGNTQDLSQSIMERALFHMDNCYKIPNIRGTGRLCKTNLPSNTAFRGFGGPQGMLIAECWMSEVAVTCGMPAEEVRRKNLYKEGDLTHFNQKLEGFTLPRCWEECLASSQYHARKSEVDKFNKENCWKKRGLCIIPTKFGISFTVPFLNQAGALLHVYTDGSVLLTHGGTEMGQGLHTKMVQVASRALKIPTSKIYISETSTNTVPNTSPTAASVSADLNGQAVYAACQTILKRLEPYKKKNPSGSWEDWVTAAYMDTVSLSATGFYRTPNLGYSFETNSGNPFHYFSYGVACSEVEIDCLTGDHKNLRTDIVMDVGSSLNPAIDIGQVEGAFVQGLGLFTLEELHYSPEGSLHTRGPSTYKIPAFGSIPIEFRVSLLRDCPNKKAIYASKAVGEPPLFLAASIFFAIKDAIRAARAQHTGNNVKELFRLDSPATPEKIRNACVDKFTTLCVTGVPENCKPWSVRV

SMILES: O=c1c2c(-c3cc(Cl)cc(Cl)c3)n(Cc3ccncc3)c(=O)cc2[nH]n1-c1ccccc1Cl [(37), 2-(2-chlorophenyl)-4-(3,5-dichlorophenyl)-5-(pyridin-4-ylmethyl)-1H-pyrazolo[4,3-c]pyridine-3,6(2H,5H)-dione]
- Ki (human Nox2; [3]): 950 nM
- Ki (human Nox4; [3]): 128 nM

SMILES: O=c1c2c(-c3cc(F)ccc3F)n(Cc3cccnc3)c(=O)cc2[nH]n1-c1ccccc1Cl [(42), 2-(2-chlorophenyl)-4-(2,5-difluorophenyl)-5-(pyridin-3-ylmethyl)-1H-pyrazolo[4,3-c]pyridine-3,6(2H,5H)-dione]
- Ki (human Nox2; [3]): 540 nM
- Ki (human Nox4; [3]): 159 nM

SMILES: NCCC(O)(P(=O)(O)O)P(=O)(O)O [pamidronat, reference compound]
- absolute bone density (total) ([2]; FIG. 6A): increased absolute bone density
- absolute trabecular bone density ([2]; FIG. 6B): increased
- relative inhibition of ovarectomy-induced total bone loss ([2]; FIG. 6C): ~50%
- relative inhibition of trabecular bone loss ([2]; FIG. 6D): approximately 60%

Continued, in another order:

- antioxidant activity [1]: no antioxidant activity
- IC50 for Nox4 relative to Nox2 (human Nox4; Nox4 versus Nox2, assay of Example 1): approximately 10 fold
SMILES: CN(C)c1cccc(-c2c3c(=O)n(-c4ccccc4Cl)[nH]c3cc(=O)n2C)c1 [2-(2-chlorophenyl)-4-[3-(dimethylamino)phenyl]-5-methyl-1H-pyrazolo[4,3-c]pyridine-3,6(2H,5H)-dione]
- RANKL induced increase in cytosolic Ca2+ (murine M-CSF-primed BMNC): prevented the RANKL induced increase in cytosolic Ca^2+

- Ki (human Nox2; [3]): 1500 nM
- Ki (human Nox4; [3]): 149 nM
SMILES: CN(C)c1cccc(-c2c3c(=O)n(-c4ccccc4Cl)[nH]c3cc(=O)n2Cc2cccnc2)c1 [(39), 2-(2-chlorophenyl)-4-[3-(dimethylamino)phenyl]-5-(pyridin-3-ylmethyl)-1H-pyrazolo[4,3-c]pyridine-3,6(2H,5H)-dione]

- Ki (human Nox2; Simvastatin comparison): > 162000 nM
- Ki (human Nox4; Simvastatin comparison): > 133000 nM
SMILES: CCC(C)(C)C(=O)O[C@H]1C[C@@H](C)C=C2C=C[C@H](C)[C@H](CC[C@@H]3C[C@@H](O)CC(=O)O3)[C@H]21 [Simvastatin, reference compound]
